Experimental data reported in patent publication US20200113854A1, “Composition for Improving Brain Function” (MORINAGA MILK INDUSTRY CO., LTD., priority 2017, published 2020).

Test system: Alzheimer's disease model mice
Protocol: With reference to NPL 6, Alzheimer's disease model mice were prepared according to the following procedure and the improvement effect of acetic acid was evaluated.
Taking the day when the administration was started as Day 1, amyloid was injected on Day 3. Specifically, an animal was anesthetized by intraperitoneally administering 40 mg/kg of pentobarbital sodium (Tokyo Chemical Industry Co., Ltd.) (amount of liquid administered: 10 mL/kg). After anesthesia, levobupivacaine hydrochloride (Popscaine (registered tradename) 0.25% inj., Maruishi Pharmaceutical Co. Ltd.) was subcutaneously administered (0.1 mL) to the scalp. After anesthesia, hair of a parietal region of the animal was cut and the head was fixed on a brain stereotaxic apparatus.
The scalp was disinfected with ethanol for disinfection and then was cut to expose the cranial bone. […]
An animal was placed in any one arm of the Y-shaped maze and was allowed to freely sleuth in the maze for 8 minutes. The order of the arms that the animal moved during the measurement period was recorded and the number of the movements to arms was counted and taken as a total entry number. […]
A spontaneous alternation action rate was calculated with the following formula. […]

CC(=O)[O-].[Na+] [Sodium acetate, sodium acetate]
Spontaneous alternation action rate (%) (Amyloid β injection group, 150 mM sodium acetate with drinking water, Y-maze 8 minutes, p < 0.01 vs Amyloid β + physiological saline): 67.5% | cognitive function of Alzheimer disease model mice (intake of 150 mM sodium acetate with drinking water): improved a cognitive function
